Data on one compound can be found in patent publication US20030065292A1, “Ozonated medical devices and methods of using ozone to prevent complications from indwelling medical devices” (priority 2001, published 2003).

In assay [1] the test system is Escherichia coli strain 2131. Briefly: Ozone killing of microorganisms on catheter surfaces. The class given is cell-based. As for the experimental part: A clinical isolate of Escherichia coli strain 2131 that had caused catheter-related infection was used. The organism was grown overnight in tryptic soy broth (TSB) at 37° C., then diluted to a concentration of 10^4 cfu/ml of TSB. The lumens of four 7-french, 20 -cm, triple-lumen polyurethane central venous catheters were filled with this working bacterial suspension and the catheters were then incubated at 25° C. for 4 hours. After draining the bacterial suspension from the lumens of catheters, the lumens were flushed with 1 ml of sterile normal saline. Using a closed dynamic flow system, the lumens of the four catheters were continually perfused for 4 hours at 25° C. with a recirculating total volume of 3 ml of sterile normal saline at a flow rate of 0.1 ml/minute. Ozone was continuously bubbled into the beaker containing the saline perfusing the lumens of two catheters (experimental arm), but no ozone was bubbled into the beaker containing the saline perfusing the lumens of the other two catheters (control arm). Four hours later, two 2 -cm segments from each of the four catheters (two in the experimental arm, and two in the control arm) were cultured onto blood agar plates using the sonication technique. Samples of the saline running through the experimental and control catheters were also inoculated onto blood agar plates. Colony counts were determined at 24 hours after incubation of the agar plates at 37° C. The following table summarizes the results of cultures of catheter segments: […]

In assay [2] the test system is Escherichia coli strain 2131. Kind of assay: Ozone killing of microorganisms in solution. The class given is cell-based. As to conditions: 25° C. As for the experimental part: A clinical isolate of Escherichia coli strain 2131 that had caused catheter-related infection was used. The organism was grown overnight in tryptic soy broth (TSB) at 37° C., then diluted to a concentration of 10^4 cfU/ml of normal saline. A 120 ml aliquot of the 10^4 cfU/ml working bacterial suspension was placed in each of two beakers at 25° C.: (1) In the experimental arm, ozone was bubbled into the bacterial suspension; (2) In the control arm, no ozone was bubbled. Four hours later, three samples of the bacterial suspension in each beaker and serial dilutions were inoculated onto blood agar plates. Colony counts were determined at 24 hours after incubation of the agar plates at 37° C. The following table summarizes the results of cultures: […]

As to `O=[O+][O-]` [ozone], the “Number of E. coli colony forming units cultured from 2-cm catheter segments” value in assay [1] (experimental arm: catheter lumens perfused 4 hours at 25° C. with saline continuously bubbled with ozone, sonication technique) came to 0 colony forming units. Besides, in assay [1] (lumens perfused 4 hours with ozone-bubbled saline), the “Ozone killing of E. coli adhered to catheter surface (result in words)” value is on record as “kills E. coli that has adhered to the catheter surface”. The “Concentration of E. coli in the saline solution used to perfuse the infected lumens of catheters” value in assay [1] (ozone-bubbled saline after 4 hours perfusion, control 42×10^2 cfu/ml) was 9×10^2 cfu/ml. In assay [2] (experimental arm: ozone bubbled into 10^4 cfu/ml bacterial suspension in normal saline, sampled four hours later, colony counts at 24 hours), the “Number of E. coli colony forming units per ml (cfu/ml)” value came to 0 cfu/ml. In addition, the “Ozone killing of E. coli in solution (result in words)” value in assay [2] (ozone bubbled into bacterial suspension, 4 hours) is given as “kills E. coli in solution”.
